Assay results published in US20030113797A1, “Method for generating, screening and dereplicating natural product libraries for the discovery of therapeutic agents” (UNIGEN PHARMACEUTICALS, INC., priority 2001, published 2003).

Experiments:
[1] = tested on: COX-1 and COX-2 recombinant enzymes; settings: major compound of fraction D3, Camellia sinensis aqueous extract; cited from earlier work
[2] = tested on: B16 F1 mouse melanoma cells; experiment: Inhibition of melanogenesis (alpha-MSH stimulated melanin formation); format: cell-based; settings: identified by dereplication of fractions D2 to D7
Method: Inhibition of melanogenesis was determined by a modified method of Siegrist and Eberle (x). B16 F1 mouse melanoma cells (2.0×10^4 cells/mL) were subcultured in GibcoBRL Modified Eagle Medium (10% FBS, 1% Gibco non-essential amino acids, 1% PSG, 1.5% Gibco vitamin solution). After 3 days incubation (37° C., 5% CO2) cells were seeded (2500 cells/well, 200 μL) in 96 well sterile culture plates (Costar) and incubated overnight (37° C., 5% CO2). The next day, cell culture medium was replaced with 100 μL fresh medium. Extract samples were dissolved in DMSO at a concentration of 30 mg/mL and diluted 1:1000 in cell culture medium on separate, sterile, 96 well plates. […] Sample wells containing no α-MSH were used to determine sample absorbance at 450 nm unrelated to melanin pigment formation as control. […] The degree of melanin formation was determined at 450 nm in a 96 well plate reader. Percent inhibition of samples was determined by the formula: […]
Ac MSH+: Absorbance at 450 nm of cells containing no sample, with MSH
Ac MSH−: Absorbance at 450 nm of cells containing no sample, without MSH
As MSH+: Absorbance at 450 nm of cells containing sample, with MSH
As MSH−: Absorbance at 450 nm of cells containing sample, without MSH

SMILES	COX inhibitor (known activity) [1]	Inhibition of melanin synthesis [2]
O=C(O[C@@H]1Cc2c(O)cc(O)cc2O[C@@H]1c1cc(O)c(O)c(O)c1)c1cc(O)c(O)c(O)c1 [Epigallocatechin Gallate (EGCG), Epigallocatechin Gallate]	well known COX inhibitor	–
O=C(OC1C(CO)OC(O)C2OC(=O)c3cc(O)c(O)c(O)c3-c3c(cc(O)c(O)c3O)C(=O)OC21)c1cc(O)c(O)c(O)c1 (centres unmarked) [Pterocaryanin B]	–	inhibition of melanin synthesis
